Experiments:
SCPMA = assay: In-water applied weed control, transplanted paddy rice, greenhouse (Example II); format: in vivo; settings: 37.5 gai/ha
Description: (§1) Evaluation of in-Water Applied Herbicidal Mixtures for Weed Control in Transplanted Paddy Rice
(§2) Weed seeds or nutlets of the desired test plant species were planted in puddled soil (mud) prepared by mixing a shredded, non-sterilized mineral soil (50.5 percent silt, 25.5 percent clay, and 24 percent sand, with a pH of about 7.6 and an organic matter content of about 2.9 percent) and water at a 1:1 volumetric ratio. The prepared mud was dispensed in 365 mL aliquots into 16-ounce (oz.) non-perforated plastic pots with a surface area of 86.59 square centimeters (cm^2) leaving a headspace of 3 centimeters (cm) in each pot. Mud was allowed to dry overnight prior to planting or transplanting. Rice seeds were planted in Sun Gro MetroMix® 306 planting mixture, which typically has a pH of 6.0 to 6.8 and an organic matter content of about 30 percent, in plastic plug trays. Seedlings at the second or third leaf stage of growth were transplanted into 840 mL of mud contained in 32-oz. non-perforated plastic pots with a surface area of 86.59 cm^2 4 days prior to herbicide application. The paddy was created by filling the headspace of the pots with 2.5 to 3 cm of water. When required to ensure good germination and healthy plants, a fungicide treatment and/or other chemical or physical treatment was applied. The plants were grown for 4-22 days in a greenhouse with an approximate 14 h photoperiod which was maintained at about 29′C during the day and 26° C. during the night. Nutrients were added as Osmocote® (19:6:12, N:P:K+ minor nutrients) at 2 g per 16-oz. pot and 4 g per 32-oz. pot. Water was added on a regular basis to maintain the paddy flood, and supplemental lighting was provided with overhead metal halide 1000-Watt lamps as necessary. The plants were employed for testing when they reached the first through fourth true leaf stage.
(§3) Treatments consisted of the acid or esters of 4-amino-3-chloro-5-fluoro-6-(4-chloro-2-fluoro-3-methoxy-phenyl)pyridine-2-carboxylic acid (compound A) each formulated as an SC (suspension concentrate) and various herbicidal components alone and in combination. Forms of compound A were applied on an acid equivalent basis.
(§4) Other herbicidal components were applied on an active ingredient basis and included 4-hydroxyphenyl pyruvate dioxygenase (HPPD)-inhibiting herbicides mesotrione formulated as Callisto®, sulcotrione formulated as Mikado®, pyrazolynate formulated as Sunbird® 10% GR, and benzobicyclon formulated as Benzobicyclon 3.5% or technical material.
(§5) Treatment requirements for each compound or herbicidal component were calculated based upon the rates being tested, the concentration of active ingredient or acid equivalent in the formulation, an application volume of 2 mL per component per pot, and an application area of 86.59 cm^2 per pot.
(§6) For formulated compounds, a measured amount was placed in an individual 100 or 200 mL glass vial and was dissolved in a volume of 1.25% (v/v) Agri-Dex® crop oil concentrate to obtain application solutions.
(§7) For technical grade compounds, a weighed amount was placed in an individual 100 to 200 mL glass vial and was dissolved in a volume of acetone to obtain concentrated stock solutions. […] The concentrated stock solutions obtained were diluted with an equivalent volume of an aqueous mixture containing 2.5% (v/v) crop oil concentrate so that the final application solutions contained 1.25% (v/v) crop oil concentrate.
(§8) Applications were made by injecting with a pipetter appropriate amounts of the application solutions, individually and sequentially, into the aqueous layer of the paddy. Control plants were treated in the same manner with the solvent blank. Applications were made so that all treated plant material received the same concentrations of acetone and crop oil concentrate.
(§9) The treated plants and control plants were placed in a greenhouse as described above and water was added as needed to maintain a paddy flood. […]

LEFCH [1] = assay: as above; format: in vivo, Leptochloa chinensis (L.) Nees
Description: as §1, §2, §3, §4, §5, §6, §7, §8, §9

ECHCG [2] = assay: Post-emergence foliar-applied weed control, greenhouse (Example I); format: in vivo, Echinochloa crusgalli (L.) Beauv.
Excerpt: (§10) Evaluation of Post-emergence Foliar-Applied Herbicidal Mixtures for Weed Control in Direct Seeded Rice
(§11) Seeds or nutlets of the desired test plant species were planted in a soil matrix prepared by mixing a loam or sandy loam soil (e.g., 28.6 percent silt, 18.8 percent clay, and 52.6 percent sand, with a pH of about 5.8 and an organic matter content of about 1.8 percent) and calcareous grit in an 80 to 20 ratio. The soil matrix was contained in plastic pots with a volume of 1 quart and a surface area of 83.6 square centimeters (cm^2). When required to ensure good germination and healthy plants, a fungicide treatment and/or other chemical or physical treatment was applied. The plants were grown for 8-22 days in a greenhouse with an approximate 14 h photoperiod which was maintained at about 29° C. during the day and 26° C. during the night. Nutrients (Peters Excel® 15-5-15 5-Ca 2-Mg and iron chelate) were applied in the irrigation solution as needed and water was added on a regular basis. Supplemental lighting was provided with overhead metal halide 1000-Watt lamps as necessary. The plants were employed for testing when they reached the first through fourth true leaf stage.
as §3, with “(Compound A),” for “(compound A)”, “concentrate),” for “concentrate)”, “Compound” for “compound”
as §4, with “3.5%.” for “3.5% or technical material.”
(§12) Treatment requirements were calculated based upon the rates being tested, the concentration of active ingredient or acid equivalent in the formulation, and a 12 mL application volume at a rate of 187 L/ha.
(§13) For treatments comprised of formulated compounds, measured amounts of compounds were placed individually in 25 mL glass vials and diluted in a volume of 1.25% (v/v) Agri-Dex® crop oil concentrated to obtain 12× stock solutions. […] Application solutions were prepared by adding an appropriate amount of each stock solution (e.g., 1 mL) and diluted to the appropriate final concentrations with the addition of 10 mL of an aqueous mixture of 1.25% (v/v) crop oil concentrate so that the final spray solutions contained 1.25+/−0.05% (v/v) crop oil concentrate.
(§14) For treatments comprised of formulated and technical compounds, weighed amounts of the technical materials were placed individually in 25 mL glass vials and dissolved in a volume of 97:3 v/v acetone/DMSO to obtain 12× stock solutions, and measured amounts of the formulated compounds were placed individually in 25 mL glass vials and diluted in a volume of 1.5% (v/v) crop oil concentrate or water to obtain 12× stock solutions. […] Application solutions were prepared by adding an appropriate amount of each stock solution (e.g., 1 mL) and diluted to the appropriate final concentrations with the addition of an appropriate amount of an aqueous mixture of 1.5% (v/v) crop oil concentrate so that the final spray solutions contained 1.25% (v/v) crop oil concentrate. As required, additional water and/or 97:3 v/v acetone/DMSO was added to individual application solutions so that the final acetone and DMSO concentrations of the application solutions being compared were 8.1% and 0.25%, respectively.
(§15) All stock solutions and applications solutions were visually inspected for compound compatibility prior to application. Spray solutions were applied to the plant material with an overhead Mandel track sprayer equipped with a 8002E nozzles calibrated to deliver 187 L/ha over an application area of 0.503 m^2 at a spray height of 18 to 20 inches (46 to 50 cm) above average plant canopy height. […]

ECHOR = assay: In-water applied weed control, transplanted paddy rice, greenhouse (Example II); format: in vivo, Echinochloa oryzoides (Ard.) Fritsch
Description: as §1, §2, §3, §4, §5, §6, §7, §8, §9

FIMMI = assay: as above; format: in vivo, Fimbristylis miliacea (L.) Vahl
Description: as §1, §2, §3, §4, §5, §6, §7, §8, §9

ECHCG [3] = assay: as above; format: in vivo, Echinochloa crusgalli (L.) Beauv.
Description: as §1, §2, §3, §4, §5, §6, §7, §8, §9

CYPRO = assay: as above; format: in vivo, Cyperus rotundus L.
Description: as §1, §2, §3, §4, §5, §6, §7, §8, §9

SCPJU = assay: as above; format: in vivo, Schoenoplectus juncoides (Roxb.) Palla
Description: as §1
as §2, with “Water was added on a regular basis to maintain the paddy flood, and supplemental lighting was provided with overhead metal halide 1000-Watt lamps as necessary. The plants were employed for testing when they reached the first through fourth true leaf stage.” left out
as §5
(§16) For formulated compounds, a measured amount was placed in an individual 100 or 200 mL glass vial and was dissolved in a volume of 1.25% (v/v) Agri-Dex® crop oil concentrate to obtain application solutions. […]

IPOHE = assay: Post-emergence foliar-applied weed control, greenhouse (Example I); format: in vivo, Ipomoea hederacea Jacq.; settings: 150 gai/ha
Excerpt: as §10, §11
as §3, with “(Compound A),” for “(compound A)”, “concentrate),” for “concentrate)”, “Compound” for “compound”
as §4, with “3.5%.” for “3.5% or technical material.”
as §12, §13, §14, §15

LEFCH [4] = assay: as above; format: in vivo, Leptochloa chinensis (L.) Nees; settings: 150 gai/ha
Excerpt: as §10
as §11, with “stage. […]” for “stage.”
as §12
For treatments comprised of formulated compounds, measured amounts of compounds were placed individually in 25 mL glass vials and diluted in a volume of 1.25% (v/v) Agri-Dex® crop oil concentrated to obtain 12× stock solutions. […]
For treatments comprised of formulated and technical compounds, weighed amounts of the technical materials were placed individually in 25 mL glass vials and dissolved in a volume of 97:3 v/v acetone/DMSO to obtain 12× stock solutions, and measured amounts of the formulated compounds were placed individually in 25 mL glass vials and diluted in a volume of 1.5% (v/v) crop oil concentrate or water to obtain 12× stock solutions. […]

ECHCO = assay: In-water applied weed control, transplanted paddy rice, greenhouse (Example II); format: in vivo, Echinochloa colona (L.) Link
Description: as §1, §2
as §3, with “basis. […]” for “basis.”
as §5, §16

Cc1ccc(S(=O)(=O)Oc2c(C(=O)c3ccc(Cl)cc3Cl)c(C)nn2C)cc1 [Pyrazolynate, (2,4-dichlorophenyl)[1,3-dimethyl-5-[[(4-methylphenyl)sulfonyl]oxy]-1H-pyrazol-4-yl]methanone, reference compound]
8%: Visual Weed Control (%) - 21 DAA ECHOR Obs (ECHOR; 75 gai/ha)
50%: Visual Weed Control (%) - 21 DAA LEFCH Obs (LEFCH [1]; 75 gai/ha)
10%: Visual Weed Control (%) - 21 DAA IPOHE Obs (IPOHE)
0%: Visual Weed Control (%) - 21 DAA SCPMA Obs (SCPMA) | Visual Weed Control (%) - 21 DAA LEFCH Obs (LEFCH [1]; 37.5 gai/ha) | Visual Weed Control (%) - 22 DAA ECHCG Obs (ECHCG [2]; 37.5 gai/ha) | Visual Weed Control (%) - 22 DAA ECHCG Obs (ECHCG [2]; 75 gai/ha) | Visual Weed Control (%) - 21 DAA ECHCG Obs (ECHCG [2]; 150 gai/ha) | Visual Weed Control (%) - 21 DAA ECHOR Obs (ECHOR; 37.5 gai/ha) | Visual Weed Control (%) - 21 DAA FIMMI Obs (FIMMI; 37.5 gai/ha) | Visual Weed Control (%) - 21 DAA FIMMI Obs (FIMMI; 75 gai/ha) | Visual Weed Control (%) - 21 DAA ECHCG Obs (ECHCG [3]; 37.5 gai/ha) | Visual Weed Control (%) - 21 DAA ECHCG Obs (ECHCG [3]; 75 gai/ha) | Visual Weed Control (%) - 21 DAA CYPRO Obs (CYPRO; 37.5 gai/ha) | Visual Weed Control (%) - 21 DAA CYPRO Obs (CYPRO; 75 gai/ha) | Visual Weed Control (%) - 21 DAA SCPJU Obs (SCPJU; 37.5 gai/ha) | Visual Weed Control (%) - 21 DAA SCPJU Obs (SCPJU; 75 gai/ha) | Visual Weed Control (%) - 21 DAA ECHCO Obs (ECHCO; 37.5 gai/ha) | Visual Weed Control (%) - 21 DAA ECHCO Obs (ECHCO; 75 gai/ha)
13%: Visual Weed Control (%) - 21 DAA ECHOR Obs (ECHOR; 150 gai/ha)
5%: Visual Weed Control (%) - 21 DAA LEFCH Obs (LEFCH [4])

Source: patent publication US8841233B2, “Herbicidal compositions comprising 4-amino-3-chloro-5-fluoro-6-(4-chloro-2-fluoro-3-methoxyphenyl) pyridine-2-carboxylic acid or a derivative thereof and 4-hydroxyphenyl-pyruvate dioxygenase (HPPD) inhibitors” (Dow Agrosciences LLC, priority 2012, dated 2014)
